ChEMBL document CHEMBL5724914, “Linking interpersonal differences in gut microbiota composition and drug biotransformation activity” (2024)

Assays:
[1] = (§1) The drug is tested on Z-019 corresponding to rat gut metagenome with ENA study accession number: PRJEB37062 and ENA sample accession number: ERS12561818 for biotransformation under anaerobic condition. The drug concentrations were measured over 9 timepoints collected between 0 and 24 hours of incubation by liquid-chromatography-coupled mass spectrometry (LC–MS); conditions: 2 µM
[2] = as §1, with “Z-023” for “Z-019”, “to” for “to rat gut”, “ERS12561822” for “ERS12561818”; conditions: 2 µM
[3] = human gut metagenome, 24 h, 2 µM
[4] = human gut metagenome, 24 h, 2 µM; remark: listed apart in the source
[5] = human gut metagenome, 24 h, 2 µM; remark: listed apart in the source
[6] = human gut metagenome, 24 h, 2 µM; remark: listed apart in the source
[7] = human gut metagenome, 24 h, 2 µM; remark: listed apart in the source
[8] = as §1, with “on WLS-170” for “on Z-019”, “to human” for “to rat”, “number: ERS12561762” for “number: ERS12561818”; conditions: 2 µM
[9] = human gut metagenome, 24 h, 2 µM; remark: listed apart in the source
[10] = human gut metagenome, 24 h, 2 µM; remark: listed apart in the source
[11] = as §1, with “on WLS-077” for “on Z-019”, “to human” for “to rat”, “number: ERS12561750” for “number: ERS12561818”; conditions: 2 µM
[12] = as §1, with “Z-021” for “Z-019”, “to” for “to rat gut”, “ERS12561820” for “ERS12561818”; conditions: 2 µM
[13] = human gut metagenome, 24 h, 2 µM; remark: listed apart in the source
[14] = as §1, with “Z-010” for “Z-019”, “to” for “to rat gut”, “ERS12561810” for “ERS12561818”; conditions: 2 µM
[15] = human gut metagenome, 24 h, 2 µM; remark: listed apart in the source
[16] = as §1, with “on WLS-007” for “on Z-019”, “to human” for “to rat”, “number: ERS12561742” for “number: ERS12561818”; conditions: 2 µM
[17] = human gut metagenome, 24 h, 2 µM; remark: listed apart in the source
[18] = human gut metagenome, 24 h, 2 µM; remark: listed apart in the source
[19] = human gut metagenome, 24 h, 2 µM; remark: listed apart in the source
[20] = as §1, with “on Z-016” for “on Z-019”, “to mouse” for “to rat”, “number: ERS12561815” for “number: ERS12561818”; conditions: 2 µM
Also: call rule not given here.

SMILES	Bacterial Biotransformation [1]	Bacterial Biotransformation [2]	Bacterial Biotransformation [3]	Bacterial Biotransformation [4]	Bacterial Biotransformation [5]	Bacterial Biotransformation [6]	Bacterial Biotransformation [7]	Bacterial Biotransformation [8]	Bacterial Biotransformation [9]	Bacterial Biotransformation [10]	Bacterial Biotransformation [11]	Bacterial Biotransformation [12]	Bacterial Biotransformation [13]	Bacterial Biotransformation [14]	Bacterial Biotransformation [15]	Bacterial Biotransformation [16]	Bacterial Biotransformation [17]	Bacterial Biotransformation [18]	Bacterial Biotransformation [19]	Bacterial Biotransformation [20]
CC(C)(C)NCC(O)c1cc(Cl)c(N)c(Cl)c1 (stereo not given) [CLENBUTEROL]	Compound NOT metabolized	Compound NOT metabolized	Compound NOT metabolized	Compound NOT metabolized	Compound NOT metabolized	Compound NOT metabolized	Compound NOT metabolized	Compound NOT metabolized	Compound NOT metabolized	Compound NOT metabolized	Compound NOT metabolized	Compound NOT metabolized	Compound NOT metabolized	Compound NOT metabolized	Compound NOT metabolized	Compound NOT metabolized	Compound NOT metabolized	Compound NOT metabolized	Compound NOT metabolized	Compound NOT metabolized
Cc1ccccc1C(OCCN(C)C)c1ccccc1.O=C(O)CC(O)(CC(=O)O)C(=O)O (stereo not given) [ORPHENADRINE CITRATE]	Compound NOT metabolized	Compound metabolized	Compound metabolized	Compound NOT metabolized	Compound NOT metabolized	Compound metabolized	Compound metabolized	Compound metabolized	Compound NOT metabolized	Compound NOT metabolized	Compound NOT metabolized	Compound metabolized	Compound metabolized	Compound NOT metabolized	Compound metabolized	Compound metabolized	Compound NOT metabolized	Compound metabolized	Compound NOT metabolized	Compound metabolized
O=C1CN2Cc3c(ccc(Cl)c3Cl)N=C2N1 [ANAGRELIDE]	Compound NOT metabolized	Compound metabolized	Compound metabolized	Compound metabolized	Compound NOT metabolized	Compound metabolized	Compound NOT metabolized	Compound metabolized	Compound NOT metabolized	Compound NOT metabolized	Compound NOT metabolized	Compound NOT metabolized	Compound metabolized	Compound metabolized	Compound NOT metabolized	Compound metabolized	Compound NOT metabolized	Compound metabolized	Compound NOT metabolized	Compound NOT metabolized
Clc1cccc(Cl)c1N=C1NCCN1 [CLONIDINE]	Compound NOT metabolized	Compound NOT metabolized	Compound metabolized	Compound metabolized	Compound metabolized	Compound metabolized	Compound NOT metabolized	Compound metabolized	Compound NOT metabolized	Compound NOT metabolized	Compound NOT metabolized	Compound NOT metabolized	Compound metabolized	Compound metabolized	Compound NOT metabolized	Compound NOT metabolized	Compound NOT metabolized	Compound metabolized	Compound NOT metabolized	Compound NOT metabolized
CC(=O)O[C@]1(C(C)=O)CC[C@H]2[C@@H]3C=C(C)C4=CC(=O)CC[C@]4(C)[C@H]3CC[C@@]21C [MEGESTROL ACETATE]	Compound NOT metabolized	Compound NOT metabolized	Compound metabolized	Compound metabolized	Compound NOT metabolized	Compound metabolized	Compound metabolized	Compound metabolized	Compound metabolized	Compound metabolized	Compound metabolized	Compound NOT metabolized	Compound metabolized	Compound metabolized	Compound metabolized	Compound metabolized	Compound metabolized	Compound metabolized	Compound metabolized	Compound metabolized
CCOc1ccccc1OCCN[C@H](C)Cc1ccc(OC)c(S(N)(=O)=O)c1.Cl [TAMSULOSIN HYDROCHLORIDE]	Compound NOT metabolized	Compound metabolized	Compound NOT metabolized	Compound metabolized	Compound NOT metabolized	Compound metabolized	Compound NOT metabolized	Compound metabolized	Compound NOT metabolized	Compound NOT metabolized	Compound NOT metabolized	Compound metabolized	Compound metabolized	Compound NOT metabolized	Compound NOT metabolized	Compound NOT metabolized	Compound NOT metabolized	Compound NOT metabolized	Compound NOT metabolized	Compound NOT metabolized
COc1ccc2c(c1)c(CC(=O)O)c(C)n2C(=O)c1ccc(Cl)cc1 [INDOMETHACIN]	Compound NOT metabolized	Compound NOT metabolized	Compound metabolized	Compound metabolized	Compound NOT metabolized	Compound NOT metabolized	Compound metabolized	Compound metabolized	Compound metabolized	Compound metabolized	Compound metabolized	Compound NOT metabolized	Compound metabolized	Compound NOT metabolized	Compound metabolized	Compound metabolized	Compound metabolized	Compound metabolized	Compound metabolized	Compound NOT metabolized
O=C(O)CCC(=O)O.O=C(O[C@H]1CN2CCC1CC2)N1CCc2ccccc2[C@@H]1c1ccccc1 [SOLIFENACIN SUCCINATE]	Compound NOT metabolized	Compound metabolized	Compound metabolized	Compound metabolized	Compound NOT metabolized	Compound NOT metabolized	Compound metabolized	Compound NOT metabolized	Compound NOT metabolized	Compound NOT metabolized	Compound NOT metabolized	Compound metabolized	Compound metabolized	Compound metabolized	Compound metabolized	Compound metabolized	Compound NOT metabolized	Compound metabolized	Compound NOT metabolized	Compound NOT metabolized
CCN(CC)CCOC(=O)C1(C2CCCCC2)CCCCC1 [DICYCLOMINE]	Compound NOT metabolized	Compound metabolized	Compound metabolized	Compound NOT metabolized	Compound NOT metabolized	Compound metabolized	Compound NOT metabolized	Compound metabolized	Compound metabolized	Compound metabolized	Compound NOT metabolized	Compound NOT metabolized	Compound metabolized	Compound metabolized	Compound metabolized	Compound metabolized	Compound NOT metabolized	Compound metabolized	Compound NOT metabolized	Compound NOT metabolized
